Results: the METLIN SMRT retention time set (Domingo-Almenara et al. 2019)

experiment: gradient 5% acetonitrile 3 min, to 50% in 2 min, to 85% in 15 min, held 3 min, 100 µL/min; conditions: column: Zorbax Extend-C18 2.1 x 50 mm; eluents: water / acetonitrile, 0.1% formic acid
How it was run: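 A Zorbax Extend-C18 column (2.1 × 50 mm, 1.8 μm) run at 100 μL/min with water and acetonitrile, both containing 0.1% formic acid, separated mixtures of ~100 pure standards. The HPLC was coupled to a quadrupole time-of-flight mass spectrometer operated in positive and negative ionization mode, with dead and dwell volumes of 40 μL and 900 μL. Each retention time was taken from a computationally picked adduct peak that was then manually inspected.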

RP-LC retention time [s]	SMILES
1250	CC1CCN(c2nc3c(c(=O)n(C)c(=O)n3C)n2Cc2ccc(Br)cc2)CC1
928	Cc1cccc(S(=O)(=O)NC2CCN(c3ccc(F)cc3)C2=O)c1 (stereo unspecified)
784	O=C(Cn1nc2c(cc1=O)CCCC2)NCCc1nc(-c2ccccc2)cs1
1280	COc1ccc(-c2nnc(-c3cccnc3N3CCN(c4ccccc4C)CC3)o2)cc1
1040	O=C(Nc1ccc2c(c1)OCCO2)C1CCCN(c2ncc(-c3cccc(F)c3)cn2)C1 (stereo unspecified)
861	O=C(CCc1ccccc1)Nc1ccc2c(c1)CCCN2C(=O)c1ccco1
1230	O=C(COc1cc(O)c2c(=O)c3ccccc3oc2c1)c1ccc(Cl)cc1
666	O=C(Cn1cccc(S(=O)(=O)N2CCOCC2)c1=O)NCc1ccc(Cl)cc1
645	Fc1ccc(-c2nnc(-c3ccc(-n4ccnc4)nc3)o2)c(F)c1
669	CCC(=O)N1CCc2cc(N3CC(C(=O)NC(C)CC)CC3=O)ccc21 (stereo unspecified)
788	CCn1cc(CCNC(=O)Nc2cccc(Cl)c2)c2cccnc21
864	CCn1nnc2ccc(-c3noc(Cc4ccc(OC)c(OC)c4)n3)cc21
876	Cc1cc(-n2c(C)nc3ccccc3c2=O)ccc1NC(=O)C(C)Oc1ccccc1 (stereo unspecified)
561	CCCn1nc(C)cc1CN(C)C(=O)Cn1nc2n(c1=O)CCC(N)CC2 (stereo unspecified)
719	CCOC(=O)c1[nH]c(C)c(C(=O)N2CCC(CC(=O)NC3CCCCC3)CC2)c1C
868	Cc1ccc(CSc2nc(CC(=O)Nc3ccc(-n4cnnn4)cc3)cs2)cc1
921	COc1cc(CC(=O)N2CCc3cc(-c4ccno4)ccc32)cc(OC)c1
867	O=C(NC(c1ccccc1)c1nnc(N2CCCC2)o1)c1cccc(Cl)c1 (stereo unspecified)
695	Cc1ccc(S(=O)(=O)Nc2ccc3c(c2)nc(-c2ccc(C(=O)NC(C)C)cc2)n3C)cc1
1080	CCOC(=O)c1noc2ncnc(Nc3cc(Cl)ccc3OC)c12
1320	CCc1nn2c(ncc3c(=O)n(-c4nccs4)ccc32)c1-c1ccc(F)cc1
970	CCOc1cc(=O)n2c(c1C(=O)OCc1ccc(Cl)cc1)CCCC2

RP-LC retention time [s]	SMILES
620	CCN1CCCC1CNC(=O)CCC(=O)N1CCCn2nc(-c3cn(C)c4ccccc34)cc21 (stereo unspecified)
974	Cc1ccc(CNC(=O)C2CCCN(S(=O)(=O)c3cc(-c4noc(C)n4)cs3)C2)cc1 (stereo unspecified)
898	COc1ccccc1NC(=O)C1CCCN(S(=O)(=O)c2c[nH]c(C(=O)N3CCCCCC3)c2)C1 (stereo unspecified)
1240	CC(C)(C)c1ccc2c(c1)N(Cc1nc(-c3ccccc3Cl)no1)C(=O)CO2
691	CN(C)C(=O)C1CCN(S(=O)(=O)Cc2ccc(F)cc2)CC1
879	Cc1[nH]c(C(=O)N2CCC(CC(=O)N3CCCCCC3)CC2)c(C)c1C(=O)OC(C)C
661	COc1ccc(F)cc1S(=O)(=O)N1C[C@@H]2C[C@H](NC(=O)c3ccccc3)[C@H]1C2
640	CCOc1ccc(N(CC)C(=O)c2nc(C)n(C3CCN(S(C)(=O)=O)CC3)c2C)cc1
937	Cc1ccc(-n2c(=O)c3c(cc(C)n3C)n(CC(=O)Nc3cccc(Cl)c3)c2=O)cc1
824	O=C(NC1CCN(c2cc(-c3ccc(F)cc3)[nH]n2)CC1)C1COc2ccccc2O1 (stereo unspecified)
594	O=C(c1ccoc1)N1CCCC(c2cc(-c3ccccc3)n[nH]2)C1 (stereo unspecified)
988	Cn1c(=O)oc2cc(-c3noc(-c4ccc(C#N)cc4)n3)ccc21
717	Nc1cc(C2CCN(C(=O)Nc3ccc(Cl)cc3F)CC2)no1
840	C=CCn1c(C)c(CC(=O)NCC(C)C)c(=O)n2nc(-c3ccc(C)cc3)nc12
740	O=C(NCc1csc(C2CCN(C(=O)c3c(F)cccc3F)CC2)n1)C1CCC1
683	COCC(=O)Nc1cnc(N2CCCCC2)nc1
816	CC1CCC2(CC1)NC(=O)N(CC(=O)Nc1cccc(F)c1)C2=O (stereo unspecified)
652	O=C(N1CCN(c2ccccc2F)CC1)C1(CCO)CCN(c2ncccn2)C1 (stereo unspecified)
850	CCOC(=O)c1c(S(=O)(=O)N2CCC(C(=O)Nc3ccccc3OC)CC2)c(C)n(C)c1C
1270	Cc1nc2cc(-c3noc(-c4ccc(F)c(Cl)c4)n3)ccc2o1
671	CCc1cccc(C)c1NC(=O)C1CCN(S(C)(=O)=O)c2cc(C)ccc2O1 (stereo unspecified)
954	CCn1c(=O)c2c(nc3n2CC(C)CN3c2ccc(Br)cc2)n(C)c1=O (stereo unspecified)

RP-LC retention time [s]	SMILES
794	COc1ccc(Cl)cc1Nc1c(-c2nc(C)no2)cnc2nc(C)ccc12
540	Cc1nc([C@@H]2CN(C(=O)c3cc(C4CC4)[nH]n3)C[C@H]2C(N)=O)n[nH]1
597	CC(C)n1cnc2cc(CNC(=O)c3ccccc3Cl)ccc21
738	COc1ccc(-c2nnc(N3CCC(C(=O)NCc4ccco4)CC3)o2)cc1
655	COc1ccc(CC(=O)Nc2nnc(-c3ccsc3)o2)cc1OC
592	CC(C)n1c(C2CCN(C(=O)C3CCCO3)CC2)nn(C)c1=O (stereo unspecified)
608	Cc1ccc2[nH]c(=O)c(CCC(=O)NCCCN3CCCC3=O)cc2c1
651	CCOc1cc(-c2ccccc2)nc2ccc(NC(=O)NCC(=O)OC)cc12
676	CCn1ccc2cc(S(=O)(=O)N3CCC(C(=O)NCCCN4CCCC(C)C4)CC3)ccc21 (stereo unspecified)
570	Cn1ncc2c(N3CCSCC3)nc(C(=O)NCc3cccnc3)nc21
909	CCOC(=O)c1nc(N(C)c2ccc(F)cc2)c2ccccc2n1
708	CNC(=O)NCCC1CCN(S(=O)(=O)c2ccc(C)cc2)CC1
821	COc1ccc(N2CCN(c3nc(C(=O)NCC4CCCO4)cs3)CC2)cc1 (stereo unspecified)
614	CCNc1nc(N2CCN(C3CCCCC3)CC2)nc2c1cnn2C
1050	Cc1ccccc1CNC(=O)C1(C)CCN(S(=O)(=O)c2ccc(Br)s2)CC1
839	Cc1ccccc1N1CCN(C(=O)c2ccc3c(c2)CC(=O)N3C)CC1
900	Cc1cccc(Nc2c(-c3ccc(N(C)C)cc3)nc3cnccn23)c1C
961	N#Cc1cccc(-c2cn3c(n2)N(C(=O)COc2ccccc2)CCC3)c1
916	O=C(Nc1ccc(N2CCN(C3CCCC3)C2=O)nc1)c1ccc(F)c(F)c1
832	COc1ccc(C2C(C(=O)Nc3ccc4c(c3)OCCO4)c3ccccc3C(=O)N2C)cc1 (stereo unspecified)
1020	Cc1ccc(NC(=O)Cn2c(=O)cc(-c3nc(C4CC4)no3)c3ccccc32)cc1F

SMILES	RP-LC retention time [s]
CCN(CC)C(=O)c1ccc2c(c1)N(CC(=O)NC1CCCC1)C(=O)C1CCCCN21 (stereo unspecified)	789
